One data set has as its system neutrophil margination. The following applies: in vivo; read-out: IC50, neutrophil margination induced by IL-8; cited from earlier work.
The subject of a further data set is neutrophil chemotaxis. The following applies: in vitro; read-out: IC50, neutrophil chemotaxis in response to IL-8; cited from earlier work.
The subject of another data set is normal human fibroblasts. The following applies: read-out: IC50, apoptosis induction; cited from earlier work.
Data set [1] has as its system various cancer cell lines. The following applies: read-out: IC50, apoptosis induction; cited from earlier work.
For the next data set, the target named is MCT2 (Homo sapiens, UniProt O60669). The following applies: cited from earlier work.
The target in the next data set is MCT1 (Homo sapiens, UniProt P53985). To be noted: cited from earlier work.
The target of data set [2] is sodium/D-glucose cotransporter. The following applies: cited from earlier work.
Another data set concerns Survivin promoter. To be noted: HeLa-SURP-luc and CHO-SV40-luc cells; read-out: IC50, inhibition of Survivin promoter activity; cited from earlier work.
Data set [3] concerns tumor cells having a mesenchymal state. In words: EMT signature and drug sensitivity data (PRISM and CTD^2, FIG. 2). To be noted: mesenchymal vs epithelial state.
Experimental: Data Curation. All analyses were performed using publicly available data downloaded from the Dependency Map web portal, corresponding to the 22Q2 release. Drug testing data was from the 19Q4 release of PRISM and the most recent release (2015) of CTD (Gröger, C. J., et al., 2012). EMT gene sets were taken from the supplementals of the Byers (2013), Groger (2012), and Taube (2010) EMT related publications. Gene sets were broken down into up (mesenchymal) and down (epithelial) sub-gene sets. If up or down is not labeled in a figure, the composite gene set (union of the up and down lists) was used for scoring. Only carcinoma coded cell lines were used in analyses. These carcinoma lines were then subset further, when indicated, based on KRAS mutation or pancreas lineage.
Computational Methods. Analyses were performed using the statistical programming language R (v4.0.3, macOS 12.5.1, platform: x86_64-apple-darwin17.0 (64-bit)). EMT scores were generated using the GSVA package (v1.38.2) and Pearson correlations were calculated using the base cor function. All plots were generated using ggplot2 (v3.3.6). Data manipulation was performed using the dplyr (v1.0.8) and reshape2 (v.1.4.4) packages.
The next data set deals with SV40 promoter. To be noted: cited from earlier work.
For data set [4], the system named is carcinoma cell lines. Nature of the data set: Correlation of EMT signatures with PRISM compound AUCs. To be noted: PRISM drug testing cohort. The text has this:
(§1) FIG. 2A-2B—Investigation of the EMT signature and drug sensitivity data. FIG. 2A illustrates the top and bottom correlations between the PRISM compound AUCs (measure of drug sensitivity with a higher value indicating resistance) across three independent EMT down (FIG. 2A) and up (FIG. 2A continued) signatures (Byers, Groger, and Taube). FIG. 2B illustrates the top and bottom correlations between the CTD^2 drug testing cohort compound AUCs with the down (FIG. 2B) and up (FIG. 2B continued) EMT signatures (Byers, Groger, and Taube).
(§2) Applicants analyzed correlations between the EMT signatures and drug sensitivities (FIG. 2).
(§3) Data Curation. All analyses were performed using publicly available data downloaded from the Dependency Map web portal, corresponding to the 22Q2 release. Drug testing data was from the 19Q4 release of PRISM and the most recent release (2015) of CTD ([…]). EMT gene sets were taken from the supplementals of the Byers (2013), Groger (2012), and Taube (2010) EMT related publications. Gene sets were broken down into up (mesenchymal) and down (epithelial) sub-gene sets. If up or down is not labeled in a figure, the composite gene set (union of the up and down lists) was used for scoring. […]
(§4) Computational Methods. […] EMT scores were generated using the GSVA package (v1.38.2) and Pearson correlations were calculated using the base cor function. […]

For data set [5], the system named is KP4, Panc1, Miapaca2 and 8988T (mesenchymal) vs Panc0403, Panc0504 and 8988S (epithelial) cancer cell lines. In words: Cell growth by cell-titer-glo assay, mesenchymal vs epithelial cancer cell lines. The class given is cell-based. The following applies: FIG. 8. On the procedure:
Validation studies were performed for two mesenchymal selective dependencies.

For data set [6] the following is noted: cited from earlier work.
For the next data set, the system named is variety of cell types. To be noted: cited from earlier work.
For a further data set, the system named is anandamide levels. The following applies: rat cerebellum; cited from earlier work.
For the next data set, the system named is anandamide uptake. To be noted: cited from earlier work.
A further data set has as its target Glut1 (Homo sapiens, UniProt P11166). To be noted: cited from earlier work.
The target of another data set is PAR4 (Homo sapiens, UniProt Q96RI0). To be noted: cited from earlier work.
Another data set deals with platelet aggregation. To be noted: cited from earlier work.
In another data set the target is PAR2 (Homo sapiens, UniProt P55085). To be noted: cited from earlier work.
Data set [7] deals with proteinase-activated receptor 1 (PAR1) (Homo sapiens, UniProt P25116). To be noted: read-out: IC50, blocking binding of haTRAP; cited from earlier work.
The subject of data set [8] is carcinoma cell lines. In words: Correlation of EMT signatures with CTD^2 compound AUCs. To be noted: CTD^2 drug testing cohort.
Source text: as §1, §2, §3, §4

Consider 9 molecules from patent US20260125683A1, “TREATMENT OF CANCERS HAVING A DRUG-RESISTANT MESENCHYMAL CELL STATE” (DANA-FARBER CANCER INSTITUTE, INC., priority 2023, published 2026).

Broadly, the IC50 is the midpoint of a concentration-inhibition curve. In general, Ki refers to the equilibrium dissociation constant of an inhibitor or competing ligand from its target. As usually defined, the GI50 is the concentration that inhibits growth by half.

Molecules are shown by their SMILES. “Also recorded” adds a separate entry of the source. Where a name gives a salt, the structure may show the parent alone. Read-outs that look alike come from different tables or passages of the source.

Sequence of MCT2 (O60669 whole entry, species assumed): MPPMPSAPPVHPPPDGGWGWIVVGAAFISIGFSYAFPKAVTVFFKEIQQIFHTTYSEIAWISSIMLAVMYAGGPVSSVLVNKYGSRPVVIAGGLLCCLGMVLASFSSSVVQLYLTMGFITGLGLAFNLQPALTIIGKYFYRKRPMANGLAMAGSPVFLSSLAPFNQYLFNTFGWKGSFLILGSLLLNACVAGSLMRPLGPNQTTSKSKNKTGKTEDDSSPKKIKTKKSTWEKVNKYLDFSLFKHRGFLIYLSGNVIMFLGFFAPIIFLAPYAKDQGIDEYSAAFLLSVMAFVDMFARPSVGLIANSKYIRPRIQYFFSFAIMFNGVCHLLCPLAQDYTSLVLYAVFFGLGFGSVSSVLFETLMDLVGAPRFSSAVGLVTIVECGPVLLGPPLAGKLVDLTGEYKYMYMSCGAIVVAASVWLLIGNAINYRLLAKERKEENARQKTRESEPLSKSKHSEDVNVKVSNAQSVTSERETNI
Sequence of PAR2 (P55085 26-397): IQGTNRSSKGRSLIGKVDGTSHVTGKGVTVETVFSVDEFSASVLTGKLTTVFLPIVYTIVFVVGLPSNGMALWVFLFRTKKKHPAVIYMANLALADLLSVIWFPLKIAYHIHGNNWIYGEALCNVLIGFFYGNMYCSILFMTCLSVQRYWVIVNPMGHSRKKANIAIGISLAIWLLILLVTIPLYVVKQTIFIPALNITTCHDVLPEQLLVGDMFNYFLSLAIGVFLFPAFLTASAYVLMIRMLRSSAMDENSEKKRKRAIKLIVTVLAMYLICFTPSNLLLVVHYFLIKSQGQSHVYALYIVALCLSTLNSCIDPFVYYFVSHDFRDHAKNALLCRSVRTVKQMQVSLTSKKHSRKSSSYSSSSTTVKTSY
Sequence of Glut1 (P11166 whole entry, species assumed): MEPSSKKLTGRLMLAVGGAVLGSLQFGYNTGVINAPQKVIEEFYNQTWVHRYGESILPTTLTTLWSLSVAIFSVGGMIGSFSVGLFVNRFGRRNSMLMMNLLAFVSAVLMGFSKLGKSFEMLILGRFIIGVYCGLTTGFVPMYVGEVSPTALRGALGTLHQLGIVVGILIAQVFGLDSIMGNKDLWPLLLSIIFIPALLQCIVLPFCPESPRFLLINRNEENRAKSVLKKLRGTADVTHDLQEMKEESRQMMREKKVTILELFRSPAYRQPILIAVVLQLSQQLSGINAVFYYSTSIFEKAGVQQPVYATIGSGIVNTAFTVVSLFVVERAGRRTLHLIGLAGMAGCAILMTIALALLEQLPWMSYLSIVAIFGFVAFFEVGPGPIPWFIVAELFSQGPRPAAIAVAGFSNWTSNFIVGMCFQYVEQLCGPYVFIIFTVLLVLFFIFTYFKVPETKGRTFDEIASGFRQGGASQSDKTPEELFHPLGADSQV
Sequence of proteinase-activated receptor 1 (PAR1) (P25116 22-425, species assumed): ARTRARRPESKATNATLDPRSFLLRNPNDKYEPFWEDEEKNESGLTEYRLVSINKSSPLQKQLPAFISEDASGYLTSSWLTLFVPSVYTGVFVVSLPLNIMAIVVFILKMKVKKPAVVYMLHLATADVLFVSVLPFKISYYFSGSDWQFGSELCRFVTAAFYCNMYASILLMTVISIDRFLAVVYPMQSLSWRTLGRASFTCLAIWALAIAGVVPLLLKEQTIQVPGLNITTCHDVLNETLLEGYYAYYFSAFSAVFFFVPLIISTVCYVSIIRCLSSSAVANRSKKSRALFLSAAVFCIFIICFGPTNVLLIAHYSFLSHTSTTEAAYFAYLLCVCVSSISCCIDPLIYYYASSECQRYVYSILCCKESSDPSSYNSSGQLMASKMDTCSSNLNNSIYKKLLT
Sequence of PAR4 (Q96RI0 18-385): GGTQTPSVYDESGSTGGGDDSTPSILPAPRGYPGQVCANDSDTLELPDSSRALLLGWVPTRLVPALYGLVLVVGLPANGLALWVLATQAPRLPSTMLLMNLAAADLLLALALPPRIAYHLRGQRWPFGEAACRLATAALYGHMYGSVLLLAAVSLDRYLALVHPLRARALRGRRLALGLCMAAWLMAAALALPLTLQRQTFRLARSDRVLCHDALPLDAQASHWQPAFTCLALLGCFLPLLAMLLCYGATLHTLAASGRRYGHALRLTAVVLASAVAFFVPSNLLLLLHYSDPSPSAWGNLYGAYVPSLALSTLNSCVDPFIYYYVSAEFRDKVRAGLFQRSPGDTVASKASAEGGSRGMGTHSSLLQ
Sequence of MCT1 (P53985 whole entry): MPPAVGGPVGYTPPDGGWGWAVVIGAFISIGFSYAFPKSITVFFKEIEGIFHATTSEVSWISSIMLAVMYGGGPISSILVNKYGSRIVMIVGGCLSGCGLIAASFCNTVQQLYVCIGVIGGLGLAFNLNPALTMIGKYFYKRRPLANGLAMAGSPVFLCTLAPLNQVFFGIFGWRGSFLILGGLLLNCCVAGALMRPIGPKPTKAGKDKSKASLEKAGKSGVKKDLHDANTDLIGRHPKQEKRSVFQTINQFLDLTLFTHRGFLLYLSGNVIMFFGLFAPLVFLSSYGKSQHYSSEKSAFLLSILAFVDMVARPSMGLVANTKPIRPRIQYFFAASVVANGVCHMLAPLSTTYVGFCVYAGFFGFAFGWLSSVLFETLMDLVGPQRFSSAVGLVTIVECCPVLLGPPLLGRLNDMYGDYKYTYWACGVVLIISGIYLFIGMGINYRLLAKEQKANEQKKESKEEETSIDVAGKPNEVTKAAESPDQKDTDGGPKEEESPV

Consider `O=C(Nc1ccc([N+](=O)[O-])cc1O)Nc1ccccc1Br` [SB 225002, 1-(2-bromophenyl)-3-(2-hydroxy-4-nitrophenyl)urea], for which the IC50 in the data set on neutrophil margination was 30 nM; in the data set on neutrophil chemotaxis, 20 nM.

In the case of `OCCNCCCOc1cccc(Cl)c1Cl` [2,3-DCPE, 2-[3-(2,3-dichlorophenoxy)propylamino]ethanol;hydrochloride], the IC50 in the data set on normal human fibroblasts was 12600 nM; in [1], 890 to 2690 nM.

As to `O=C(CCc1ccc(O)cc1)c1c(O)cc(O)cc1O` [Phloretin, 3-(4-hydroxyphenyl)-1-(2,4,6-trihydroxyphenyl)propan-1-one], the IC50 on MCT2 is 14000 nM; at MCT1, 28000 nM. Further, the Ki in data set [2] is 86000 nM.

For `COCCn1c2c([n+](Cc3cnccn3)c1C)C(=O)c1ccccc1C2=O` [YM-155, 1-(2-methoxyethyl)-2-methyl-3-(pyrazin-2-ylmethyl)benzo[f]benzimidazol-3-ium-4,9-dione;bromide], the IC50 in the data set with Survivin promoter was 0.54 nM. Also, the “selective efficacy / lethality in the mesenchymal cell state” value in data set [3] was “potent selectivity against the mesenchymal cell state”. Further, in the data set on SV40 promoter, the “inhibition of SV40 promoter activity” value is “does not significantly inhibit”. Further, the “correlation of compound AUC with composite EMT signatures” value in the data set with carcinoma cell lines [4] is “top positively correlated compound”. Besides, the “selectivity of growth inhibition, mesenchymal vs epithelial cancer cells” value in data set [5] is “selective for inhibiting growth of mesenchymal cancer cells; also recorded: selectively targeted cancer cells that have undergone an epithelial-to-mesenchymal transition”.

As to `CC[C@H]1/C=C/C=C/C[C@@H](C)[C@H](O)[C@@](C)(O)C(=O)[C@@H](C)[C@H](O)[C@@H](C)C(=O)[C@@H](C)[C@H](O)[C@@H](C)/C=C/C(=O)O[C@@H]2[C@H](C)[C@H](CC1)O[C@]1(CC[C@H](C)[C@H](C[C@@H](C)O)O1)[C@H]2C` [Oligomycin A, (1R,4E,5′S,6S,6′S,7R,8S,10R,11R,12S,14R,15S,16R,18E,20E,22R,25S,27R,28S,29R)-22-ethyl-7,11,14,15-tetrahydroxy-6′-[(2R)-2-hydroxypropyl]-5′,6,8,10,12,14,16,28,29-nonamethyl-3′,4′,5′,6′-tetrahydro-3H,9H,13H-spiro[2,26-dioxabicyclo[23.3.1]nonacosa-4,18,20-triene-27,2′-pyran]-3,9,13-trione], the “solubility in water and other biocompatible solvents” value in [6] is recorded as “poor solubility”. Moreover, the GI50 with variety of cell types was 270 nM.

As for `CN(C)C(=O)n1nnnc1Cc1ccc(-c2ccccc2)cc1` [LY2183240, N,N-dimethyl-5-[(4-biphenyl)methyl]tetrazole-1-carboxamide], the “ED50, increase of anandamide levels” value with anandamide levels was 1.37 mg/kg. In addition, the IC50 with anandamide uptake (read-out: IC50, anandamide uptake) was 270000 nM. For the same molecule, at anandamide uptake (read-out: Ki, anandamide uptake), the Ki is 540000 nM.

`CC(C)(C)c1ccc(S(=O)(=O)NCc2ccc(C(=O)Nc3cccnc3)cc2)cc1` [STF-31, 4-[[[[4-(1,1-dimethylethyl)phenyl]sulfonyl]amino]methyl]-N-3-pyridinyl-benzamide]: the 50% inhibitory concentration (IC50) on Glut1 was approximately 1000 nM.

As for `CC(C)c1ccc(Cn2ccc3c4c(N)nc(NC5CC5)nc4ccc32)cc1` [SCH 79797, 3-N-cyclopropyl-7-[(4-propan-2-ylphenyl)methyl]pyrrolo[3,2-f]quinazoline-1,3-diamine], the “activity against PAR4” value on PAR4 was “no activity”. Besides, the IC50 in the data set with platelet aggregation (inducer haTRAP, read-out: IC50, platelet aggregation induced by haTRAP) was 300 nM; in the data set on platelet aggregation (inducer α-thrombin, read-out: IC50, platelet aggregation induced by α-thrombin), 3000 nM; in data set [7] it was 70 nM. In addition, at PAR2, the “activity against PAR2” value is recorded as “no activity”.

As for `O=C(Nc1ccc([N+](=O)[O-])cc1Cl)c1cc(Cl)ccc1O` [niclosamide, 5-chloro-N-(2-chloro-4-nitrophenyl)-2-hydroxybenzamide], the “selective efficacy / lethality in the mesenchymal cell state” value in data set [3] is “selective efficacy in mesenchymal cancer cells”. For the same molecule, in the data set with carcinoma cell lines [8], the “correlation of compound AUC with composite EMT signatures” value is “top positively correlated compound”.
